# Measured values as given in patent publication US4167580A, “Compositions and method of use to treat arthritic disease with m-fluorobenzimidoylacetonitrile” (American Cyanamid Company, priority 1978, dated 1979).
# Legend:
# [1] = tested on: Body Temperature of Pyretic Rats; assay: Body temperature in yeast induced pyrexia; type: in vivo, Royal Hart, Wistar strain rats; conditions: 250 mg./kg. by gavage 17 hours after yeast; measured 19 hours post challenge
# Protocol: The effect of benzimidoylacetonitrile on body temperature in yeast induced pyrexia was determined by the following procedure. Groups of three Royal Hart, Wistar strain rats weighing 80±5 grams were injected subcutaneously in the nape of the neck with 0.6 ml. of a 40% suspension of dried brewers yeast in distilled water. […] At 19 hours post challenge the rectal temperature of each rat was measured with an electric thermometer. Each dose response experiment was replicated one or more times.
# Erythema in Guinea Pigs = assay: Ultraviolet induced erythema in guinea pigs, topical application; type: in vivo, Albino guinea pigs
# Protocol: Albino guinea pigs were depilitated on their flanks, the evening before testing, with a standard mixture of barium sulfide and gum acacia. On the morning of the test at 0 hour they were restrained in a plastic container which allows exposure of 3 circular spots. They were then exposed to ultraviolet irradiation from a "Hanovia" Kromayer lamp, model 10, for 60 seconds. Immediately after exposure to ultraviolet light, the guinea pigs were treated by dissolving the test compound in ethyl alcohol at various concentrations and swabbing the UV exposed areas with the aid of a cottom tipped applicator stick. At one and four hours, the degree of erythema for each of the three sites was assessed according to the following scoring system: 0=no erythema, 0.5=incomplete circle or faint erythema and 1.0=complete circle of distinct erythema. Thus, the maximum score for each animal was 3.0.
# [2] = tested on: Adjuvant Arthritis in Rats; assay: Adjuvant induced arthritis in rats (chronic inflammation with joint destruction); type: in vivo, Royal Hart, Wistar strain rats; conditions: for % Inhibition of Control Grade (secondary lesion), Day 14 / % Inhibition of Control Grade (secondary lesion), Day 21 / % Inhibition of Swelling (primary lesion), Day 14 / % Inhibition of Swelling (primary lesion), Day 21 / Dead/Treated At 21 Days / Mean Weight Gain, Day 14 / Mean Weight Gain, Day 21: once daily days 0-13
# Excerpt: Adjuvant induced experimental polyarthritis is a specific systemic disease of the rat which shares interesting similarities with rheumatoid arthritis. Specifically, the histology of the two diseases bears a remarkable resemblance as shown by C. M. Pearson et al., Am. J. Pathol. 42, 73 (1963). E. M. Glenn, Am. J. Vet. Res. 27 (116), 339 (1966) has classified adjuvant induced polyarthritis as a crippling and permanent deformity resulting from diffuse connective tissue involvement around certain susceptible joints in the rat. Zahiri et al., Can. Med. Ass. J. 101, 269 (1969) have shown that the fusiform swelling of the distal joints is associated with edema, congestion and synovitis including pannus formation, all of which precede the ultimate destruction of bone and cartilage. Furthermore, Zahiri et al. indicate that the cartilage destruction in the joint is due to an invasive pannus which originates in the marginal synovium and extends across the articular surface to erode it. […] See S. Wong et al., J. Pharm. & Exptl. Ther. 185, 127 (1973) and G. R. Bobalick et al., Agents & Actions 4, 364 (1974). In a similar manner, inhibition of the progress of arthritis in paws of rats treated with the compounds of this invention also lessens associated joint deterioration.
# Groups of three Royal Hart, Wistar strain rats weighing 200±10 grams each were injected intradermally in the right hind paw with Freund's adjuvant (dried human tubercle bacilli in a mineral oil vehicle) at a dose of 2 mg./kg. of body weight. Test compounds were administered orally in a 1.5% staruh vehicle at various doses once daily on days 0 through 13 post challenge. Control rats were treated in a similar manner, but given only starch vehicle. On the 14th and 21st day post challenge the diameter of the injected paw (primary lesion) was measured by micrometer caliper. The volume of inflamed paws were estimated from these measurements and the results are expressed as percent inhibition of swelling as compared to controls. At the same time, the other inflamed sites, such as ears, paws and tail (secondary lesions) were observed and each rat was graded as to degree of inflammation and swelling present. The grading is based on a scale of 0 to 24, where 0 represents a complete absence of induced arthritic nodules and 24 represents the maximum degree of inflammation. The mean grade for each treated group is calculated and the effects of each compound are expressed as percent inhibition of the control grade. Table III records the results of these tests conducted with benzimidoylacetonitrile, m-fluorobenzimidoylacetonitrile and p-fluorobenzimidoylacetonitrile and known anti-inflammatory agents. The active compounds of the present invention suppress the progression of the arthritis and associated joint deterioration. Of particular interest is the low mortality observed with benzimidoylacetonitrile treated rats relative to either controls or rats treated with standard compounds.
# [3] = tested on: Carrageenin Induced Edema of the Rat Paw; assay: Carrageenin induced edema of the rat paw (acute anti-inflammatory activity); type: in vivo, Royal Hart, Wistar strain rats; conditions: 250 mg./kg. by gavage, 5 hours after drug (4 hours after carrageenin)
# Protocol: In determining the acute anti-inflammatory activity of benzimidoylacetonitrile, Royal Hart, Wistar strain rats ranging in weight from 80 to 90 grams were used. The rats were fasted overnight prior to dosing but had free access to water. The compound was administered in aqueous suspension, by gavage, in a volume of 1.7 ml. per 50 grams of rat [corresponds by hydration volume used by Winter et al., Proc. Soc. […] The phlogistic agent used was carrageenin prepared as a sterile 1% suspension in 0.9% aqueous sodium chloride for routine testing. A volume of 0.05 ml. was injected through a 26 gauge needle into the planter tissue of the right hind paw. Measurements were made 5 hours after drug administration (4 hours after carrageenin challenge). Volumes of both the normal and carrageenin inflamed feet were determined. The difference between the two measurements is considered to be the increased edema due to the carrageenin administration.
# [4] = 1% in ethyl alcohol, maximum score 3.0, ethyl alcohol control 2.5
# [5] = 1% in ethyl alcohol, maximum score 3.0, ethyl alcohol control 3.0
smiles,measurement,setting,value
CC(=O)Oc1ccccc1C(=O)O [Aspirin],Decrease In Body Temp.,[1],1.5 °C
same,Erythema Score (Avg.) 1 Hr.,Erythema in Guinea Pigs; [4],1.9
same,Erythema Score (Avg.) 4 Hr.,Erythema in Guinea Pigs; [5],2.8
same,"% Inhibition of Control Grade (secondary lesion), Day 14",[2]; 50 mg./kg. oral,12%
same,"% Inhibition of Control Grade (secondary lesion), Day 21",[2]; 50 mg./kg. oral,9%
same,"% Inhibition of Swelling (primary lesion), Day 14",[2]; 50 mg./kg. oral,23%
same,"% Inhibition of Swelling (primary lesion), Day 21",[2]; 50 mg./kg. oral,3%
same,Dead/Treated At 21 Days,[2]; 50 mg./kg. oral,2/21
same,"Mean Weight Gain, Day 14",[2]; 50 mg./kg. oral,56 grams
same,"Mean Weight Gain, Day 21",[2]; 50 mg./kg. oral,44 grams
same,"% Inhibition of Control Grade (secondary lesion), Day 14",[2]; 100 mg./kg. oral,19%
same,"% Inhibition of Control Grade (secondary lesion), Day 21",[2]; 100 mg./kg. oral,8%
same,"% Inhibition of Swelling (primary lesion), Day 14",[2]; 100 mg./kg. oral,36%
same,"% Inhibition of Swelling (primary lesion), Day 21",[2]; 100 mg./kg. oral,13%
same,Dead/Treated At 21 Days,[2]; 100 mg./kg. oral,18/63
same,"Mean Weight Gain, Day 14",[2]; 100 mg./kg. oral,48 grams
same,"Mean Weight Gain, Day 21",[2]; 100 mg./kg. oral,53 grams
same,"% Inhibition of Control Grade (secondary lesion), Day 14",[2]; 200 mg./kg. oral,26%
same,"% Inhibition of Control Grade (secondary lesion), Day 21",[2]; 200 mg./kg. oral,17%
same,"% Inhibition of Swelling (primary lesion), Day 14",[2]; 200 mg./kg. oral,48%
same,"% Inhibition of Swelling (primary lesion), Day 21",[2]; 200 mg./kg. oral,27%
same,Dead/Treated At 21 Days,[2]; 200 mg./kg. oral,10/66
same,"Mean Weight Gain, Day 14",[2]; 200 mg./kg. oral,40 grams
same,"Mean Weight Gain, Day 21",[2]; 200 mg./kg. oral,44 grams
same,"% Inhibition of Control Grade (secondary lesion), Day 14",[2]; 400 mg./kg. oral,58%
same,"% Inhibition of Control Grade (secondary lesion), Day 21",[2]; 400 mg./kg. oral,45%
same,"% Inhibition of Swelling (primary lesion), Day 14",[2]; 400 mg./kg. oral,73%
same,"% Inhibition of Swelling (primary lesion), Day 21",[2]; 400 mg./kg. oral,48%
same,Dead/Treated At 21 Days,[2]; 400 mg./kg. oral,19/57
same,"Mean Weight Gain, Day 14",[2]; 400 mg./kg. oral,41 grams
same,"Mean Weight Gain, Day 21",[2]; 400 mg./kg. oral,55 grams
same,C/T Edema Ratio (edema of control animals/edema of treated animals),[3],2.8
"N#CCC(=N)c1ccccc1 [Benzimidoylacetonitrile, benzimidoylacetonitrile]",Decrease In Body Temp.,[1],1.4 °C
same,Erythema Score (Avg.) 1 Hr.,Erythema in Guinea Pigs; [4],1.0
same,Erythema Score (Avg.) 4 Hr.,Erythema in Guinea Pigs; [5],2.8
same,Erythema Score (Avg.) 1 Hr.,"Erythema in Guinea Pigs; 2% in ethyl alcohol, maximum score 3.0, control 2.5",0.6
same,Erythema Score (Avg.) 4 Hr.,"Erythema in Guinea Pigs; 2% in ethyl alcohol, maximum score 3.0, control 3.0",2.7
same,"% Inhibition of Control Grade (secondary lesion), Day 14",[2]; 25 mg./kg. oral,33%
same,"% Inhibition of Control Grade (secondary lesion), Day 21",[2]; 25 mg./kg. oral,16%
same,"% Inhibition of Swelling (primary lesion), Day 14",[2]; 25 mg./kg. oral,33%
same,"% Inhibition of Swelling (primary lesion), Day 21",[2]; 25 mg./kg. oral,32%
same,Dead/Treated At 21 Days,[2]; 25 mg./kg. oral,1/9
same,"Mean Weight Gain, Day 14",[2]; 25 mg./kg. oral,41 grams
same,"Mean Weight Gain, Day 21",[2]; 25 mg./kg. oral,38 grams
same,"% Inhibition of Control Grade (secondary lesion), Day 14",[2]; 50 mg./kg. oral,59%
same,"% Inhibition of Control Grade (secondary lesion), Day 21",[2]; 50 mg./kg. oral,48%
same,"% Inhibition of Swelling (primary lesion), Day 14",[2]; 50 mg./kg. oral,63%
same,"% Inhibition of Swelling (primary lesion), Day 21",[2]; 50 mg./kg. oral,62%
same,Dead/Treated At 21 Days,[2]; 50 mg./kg. oral,1/24
same,"Mean Weight Gain, Day 14",[2]; 50 mg./kg. oral,31 grams
same,"Mean Weight Gain, Day 21",[2]; 50 mg./kg. oral,49 grams
same,"% Inhibition of Control Grade (secondary lesion), Day 14",[2]; 100 mg./kg. oral,57%
same,"% Inhibition of Control Grade (secondary lesion), Day 21",[2]; 100 mg./kg. oral,46%
same,"% Inhibition of Swelling (primary lesion), Day 14",[2]; 100 mg./kg. oral,68%
same,"% Inhibition of Swelling (primary lesion), Day 21",[2]; 100 mg./kg. oral,60%
same,Dead/Treated At 21 Days,[2]; 100 mg./kg. oral,0/15
same,"Mean Weight Gain, Day 14",[2]; 100 mg./kg. oral,46 grams
same,"Mean Weight Gain, Day 21",[2]; 100 mg./kg. oral,65 grams
same,duration of action (in words),[2]; greater suppression of primary and secondary lesions at the 21 day observation period,longer duration of action than standards
same,mortality (in words),[2]; relative to either controls or rats treated with standard compounds,low mortality
same,C/T Edema Ratio (edema of control animals/edema of treated animals),[3],2.2
